Measured values taken from US5587475A, “Derivatized virginiamycin M1” (University of Notre Dame, priority 1995, dated 1996).

Legend:
Micrococcus luteus = assay: in vivo activity, M.I.C. on M. luteus (VM1 derivatives alone, without VS1); type: cell-based; parameters: key: (+) indicates multiplication of bacteria; conditions: M. luteus in LBroth, 18 h at 37° C. with shaking
Protocol: The synthesized derivatives of the present invention have been tested for antibacterial activity (in solid and liquid medium), ribosome binding affinity and synergistic activity with virginiamycin S. The tests for biological activity were carried out both in vivo and in vitro. The in vivo tests were carried out using Micrococcus luteus as the test organism with the VM1 derivatives alone (without VS1). Minimum inhibitory concentrations (MIC values) were determined on agar broth plates by standard microbiological procedures, with a range of concentrations of the VM derivatives applied to the plates. The in vitro tests of the VM derivatives were performed together with VS1, and took advantage of the unique fluorescence (F) inherent in VS1. The results are summarized in the following tables, wherein the activities are compared to virginiamycin (VM1). | M. luteus in LBroth, 18 h at 37° C. with shaking. | M. luteus in LBroth, 18 h at 37° C. with shaking.

ribosomes = assay: in vitro activity: binding to free ribosomes, VS1 fluorescence with erythromycin displacement; parameters: key to kobs (symbol): (*) too small to be measured. t/2 is very large; conditions: together with VS1, fluorescence
Protocol: The in vivo tests were carried out using Micrococcus luteus as the test organism with the VM1 derivatives alone (without VS1). Minimum inhibitory concentrations (MIC values) were determined on agar broth plates by standard microbiological procedures, with a range of concentrations of the VM derivatives applied to the plates. The in vitro tests of the VM derivatives were performed together with VS1, and took advantage of the unique fluorescence (F) inherent in VS1. […] Using spectrofluorometry, an increase in fluorescence can be measured when ribosomes are added to a VS1 solution. Erythromycin is known to bind at the same position on the ribosome (50-S subunit) as VS1, and when it is added to the VS1 /ribosomal mixture, a decrease in fluorescence is seen. If VM1 is added to the VS1 /ribosomal/erythromycin mixture, an increase in fluorescence can be measured. Presumably, a conformational change of the ribosomes occurs upon binding of VM1, which allows VS1 to bind preferentially and releases erythromycin from the ribosomes. The VM1 derivatives would also display this type of behavior if they bind to the ribosomes.

[1] = in vitro Activity of VM1-Carboxylic Acid Derivatives
[2] = in vitro Activity of VM1-Ester Derivatives

SMILES | in vivo Acitivity of VM1-Carboxylic Derivatives, M.I.C. on M. luteus (multiplication of bacteria) (Micrococcus luteus; Concentration 0.0625 μg/mL) | in vivo Acitivity of VM1-Carboxylic Derivatives, M.I.C. on M. luteus (multiplication of bacteria) (Micrococcus luteus; Concentration 0.125 μg/mL) | in vivo Acitivity of VM1-Carboxylic Derivatives, M.I.C. on M. luteus (multiplication of bacteria) (Micrococcus luteus; Concentration 0.25 μg/mL) | in vivo Acitivity of VM1-Carboxylic Derivatives, M.I.C. on M. luteus (multiplication of bacteria) (Micrococcus luteus; Concentration 0.5 μg/mL) | in vivo Acitivity of VM1-Carboxylic Derivatives, M.I.C. on M. luteus (multiplication of bacteria) (Micrococcus luteus; Concentration 1 μg/mL) | in vivo Acitivity of VM1-Carboxylic Derivatives, M.I.C. on M. luteus (multiplication of bacteria) (Micrococcus luteus; Concentration 2 μg/mL) | in vivo Acitivity of VM1-Carboxylic Derivatives, M.I.C. on M. luteus (multiplication of bacteria) (Micrococcus luteus; Concentration 4 μg/mL) | in vivo Acitivity of VM1-Carboxylic Derivatives, M.I.C. on M. luteus (multiplication of bacteria) (Micrococcus luteus; Concentration 8 μg/mL) | in vivo Acitivity of VM1-Carboxylic Derivatives, M.I.C. on M. luteus (multiplication of bacteria) (Micrococcus luteus; Concentration 16 μg/mL) | kobs (ribosomes; [1]) | t/2 (ribosomes; [1]) [s] | in vivo Activity of VM1-Ester Derivatives, M.I.C. on M. luteus (multiplication of bacteria) (Micrococcus luteus; Concentration 0.0625 μg/mL) | in vivo Activity of VM1-Ester Derivatives, M.I.C. on M. luteus (multiplication of bacteria) (Micrococcus luteus; Concentration 0.125 μg/mL) | in vivo Activity of VM1-Ester Derivatives, M.I.C. on M. luteus (multiplication of bacteria) (Micrococcus luteus; Concentration 0.25 μg/mL) | kobs (ribosomes; [2]) [s⁻¹] | t/2 (ribosomes; [2]) [s] | in vivo Activity of VM1-Ester Derivatives, M.I.C. on M. luteus (multiplication of bacteria) (Micrococcus luteus; Concentration 0.5 μg/mL) | other results
CC1=C\[C@@H](O)CC(=O)Cc2nc(co2)C(=O)N2CC[C@@H](SCC(=O)O)[C@@H]2C(=O)O[C@H](C(C)C)[C@H](C)/C=C/C(=O)NC\C=C\1 [Carboxylic a R,S] | + | + | + | + | + | + | + | + | + | .00047 s⁻¹ | 1487 |  |  |  |  |  |  | 
CC1=C\[C@@H](O)CC(=O)Cc2nc(co2)C(=O)N2CC[C@H](SCC(=O)O)[C@H]2C(=O)O[C@H](C(C)C)[C@H](C)/C=C/C(=O)NC\C=C\1 [Carboxylic a S,R] | + | + | + | + | + | + | + | + | + |  |  |  |  |  |  |  |  | in vivo Acitivity of VM1-Carboxylic Derivatives, M.I.C. on M. luteus (multiplication of bacteria) (Micrococcus luteus; Concentration 32 μg/mL): +; in vivo Acitivity of VM1-Carboxylic Derivatives, M.I.C. on M. luteus (multiplication of bacteria) (Micrococcus luteus; Concentration 128 μg/mL): +; kobs (symbol) (ribosomes; [1]): *
CC1=C\[C@@H](O)CC(=O)Cc2nc(co2)C(=O)N2CC[C@@H](SCCC(=O)O)[C@@H]2C(=O)O[C@H](C(C)C)[C@H](C)/C=C/C(=O)NC\C=C\1 [Carboxylic b R,S] | + | + | + | + | + | + | + | + | + | 0.003 s⁻¹ | 229 |  |  |  |  |  |  | in vivo Acitivity of VM1-Carboxylic Derivatives, M.I.C. on M. luteus (multiplication of bacteria) (Micrococcus luteus; Concentration 32 μg/mL): +
CC1=C\[C@@H](O)CC(=O)Cc2nc(co2)C(=O)N2CC[C@H](SCCC(=O)O)[C@H]2C(=O)O[C@H](C(C)C)[C@H](C)/C=C/C(=O)NC\C=C\1 [Carboxylic b S,R] | + | + | + | + | + | + | + | + | + |  |  |  |  |  |  |  |  | in vivo Acitivity of VM1-Carboxylic Derivatives, M.I.C. on M. luteus (multiplication of bacteria) (Micrococcus luteus; Concentration 32 μg/mL): +; in vivo Acitivity of VM1-Carboxylic Derivatives, M.I.C. on M. luteus (multiplication of bacteria) (Micrococcus luteus; Concentration 128 μg/mL): +; kobs (symbol) (ribosomes; [1]): *
CC1=C\[C@@H](O)CC(=O)Cc2nc(co2)C(=O)N2CC[C@@H](SCCCCC(=O)O)[C@@H]2C(=O)O[C@H](C(C)C)[C@H](C)/C=C/C(=O)NC\C=C\1 [Carboxylic c R,S] | + | + | + |  |  |  |  |  |  | 0.019 s⁻¹ | 38.7 |  |  |  |  |  |  | 
CC1=C\[C@@H](O)CC(=O)Cc2nc(co2)C(=O)N2CC[C@H](SCCCCC(=O)O)[C@H]2C(=O)O[C@H](C(C)C)[C@H](C)/C=C/C(=O)NC\C=C\1 [Carboxylic c S,R] | + | + | + |  |  |  |  |  |  | 0.015 s⁻¹ | 46 |  |  |  |  |  |  | 
CC1=C\[C@@H](O)CC(=O)Cc2nc(co2)C(=O)N2CC[C@@H](SCC(=O)OCC(Cl)(Cl)Cl)[C@@H]2C(=O)O[C@H](C(C)C)[C@H](C)/C=C/C(=O)NC\C=C\1 [Ester a R,S] |  |  |  |  |  |  |  |  |  |  |  | + | + | + | 0.019 | 35.6 |  | 
CC1=C\[C@@H](O)CC(=O)Cc2nc(co2)C(=O)N2CC[C@H](SCC(=O)OCC(Cl)(Cl)Cl)[C@H]2C(=O)O[C@H](C(C)C)[C@H](C)/C=C/C(=O)NC\C=C\1 [Ester a S,R] |  |  |  |  |  |  |  |  |  |  |  | + | + | + |  |  | + | in vivo Activity of VM1-Ester Derivatives, M.I.C. on M. luteus (multiplication of bacteria) (Micrococcus luteus; Concentration 1 μg/mL): +; in vivo Activity of VM1-Ester Derivatives, M.I.C. on M. luteus (multiplication of bacteria) (Micrococcus luteus; Concentration 2 μg/mL): +; in vivo Activity of VM1-Ester Derivatives, M.I.C. on M. luteus (multiplication of bacteria) (Micrococcus luteus; Concentration 4 μg/mL): +; in vivo Activity of VM1-Ester Derivatives, M.I.C. on M. luteus (multiplication of bacteria) (Micrococcus luteus; Concentration 8 μg/mL): +; in vivo Activity of VM1-Ester Derivatives, M.I.C. on M. luteus (multiplication of bacteria) (Micrococcus luteus; Concentration 16 μg/mL): +; kobs (symbol) (ribosomes; [2]): *
CC1=C\[C@@H](O)CC(=O)Cc2nc(co2)C(=O)N2CC[C@@H](SCCC(=O)OCC(Cl)(Cl)Cl)[C@@H]2C(=O)O[C@H](C(C)C)[C@H](C)/C=C/C(=O)NC\C=C\1 [Ester b R,S] |  |  |  |  |  |  |  |  |  |  |  | + | + | + | 0.021 | 32.7 | + | 
CC1=C\[C@@H](O)CC(=O)Cc2nc(co2)C(=O)N2CC[C@H](SCCC(=O)OCC(Cl)(Cl)Cl)[C@H]2C(=O)O[C@H](C(C)C)[C@H](C)/C=C/C(=O)NC\C=C\1 [Ester b S,R] |  |  |  |  |  |  |  |  |  |  |  | + | + | + | 0.0009 | 721 | + | in vivo Activity of VM1-Ester Derivatives, M.I.C. on M. luteus (multiplication of bacteria) (Micrococcus luteus; Concentration 1 μg/mL): +; in vivo Activity of VM1-Ester Derivatives, M.I.C. on M. luteus (multiplication of bacteria) (Micrococcus luteus; Concentration 2 μg/mL): +; in vivo Activity of VM1-Ester Derivatives, M.I.C. on M. luteus (multiplication of bacteria) (Micrococcus luteus; Concentration 4 μg/mL): +; in vivo Activity of VM1-Ester Derivatives, M.I.C. on M. luteus (multiplication of bacteria) (Micrococcus luteus; Concentration 8 μg/mL): +
CC1=C\[C@@H](O)CC(=O)Cc2nc(co2)C(=O)N2CC[C@@H](SCCCCC(=O)OCC(Cl)(Cl)Cl)[C@@H]2C(=O)O[C@H](C(C)C)[C@H](C)/C=C/C(=O)NC\C=C\1 [Ester c R,S] |  |  |  |  |  |  |  |  |  |  |  | + | + | + | 0.020 | 34.1 | + | in vivo Activity of VM1-Ester Derivatives, M.I.C. on M. luteus (multiplication of bacteria) (Micrococcus luteus; Concentration 1 μg/mL): +; in vivo Activity of VM1-Ester Derivatives, M.I.C. on M. luteus (multiplication of bacteria) (Micrococcus luteus; Concentration 2 μg/mL): +; in vivo Activity of VM1-Ester Derivatives, M.I.C. on M. luteus (multiplication of bacteria) (Micrococcus luteus; Concentration 4 μg/mL): +
